In ChEMBL document CHEMBL5729152, “Lysyl oxidase-like 2 inhibitors and uses thereof” (2022):

Target: T1, Lysyl oxidase homolog 2 (Homo sapiens, UniProt Q9Y4K0)
T1 sequence (Q9Y4K0 whole entry): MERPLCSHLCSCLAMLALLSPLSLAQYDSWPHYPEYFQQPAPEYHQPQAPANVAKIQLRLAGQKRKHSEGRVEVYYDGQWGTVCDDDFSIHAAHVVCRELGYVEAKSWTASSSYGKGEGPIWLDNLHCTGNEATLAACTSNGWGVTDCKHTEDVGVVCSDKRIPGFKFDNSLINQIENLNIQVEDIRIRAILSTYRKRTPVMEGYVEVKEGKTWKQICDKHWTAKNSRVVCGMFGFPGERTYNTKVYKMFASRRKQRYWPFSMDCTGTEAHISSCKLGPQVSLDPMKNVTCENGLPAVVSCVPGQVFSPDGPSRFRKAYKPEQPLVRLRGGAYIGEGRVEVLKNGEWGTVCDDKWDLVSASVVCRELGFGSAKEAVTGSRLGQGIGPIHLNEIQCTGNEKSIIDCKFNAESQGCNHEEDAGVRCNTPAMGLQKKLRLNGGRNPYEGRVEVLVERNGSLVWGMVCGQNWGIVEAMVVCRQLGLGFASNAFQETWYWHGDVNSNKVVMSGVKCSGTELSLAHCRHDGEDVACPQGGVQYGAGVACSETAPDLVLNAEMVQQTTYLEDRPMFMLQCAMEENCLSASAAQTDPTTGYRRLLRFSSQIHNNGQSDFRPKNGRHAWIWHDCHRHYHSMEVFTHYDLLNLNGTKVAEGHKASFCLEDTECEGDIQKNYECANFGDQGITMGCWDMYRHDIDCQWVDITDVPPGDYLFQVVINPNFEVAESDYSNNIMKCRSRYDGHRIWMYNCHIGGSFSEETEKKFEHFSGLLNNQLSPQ
Assay: Human LOXL2 Amine Oxidase Activity Assay: LOXL2 amine oxidase activity is evaluated by measuring Amplex Red fluorescence using 10-20× concentrated conditioned media from CHO cells stably expressing human LOXL2. To assay for amine oxidase activity, 10 μL of the concentrated conditioned media is incubated with 2 μL of test compound in DMSO and 73 μL Assay Buffer (50 mM Borate Buffer, pH8) for 2 h at 37° C. After the 2 h incubation, 5 μl of 10 mM 1,5-Diaminopentane (DAP) diluted in Assay Buffer and 10 μl of Amplex Red Mix (8.5 μl Assay Buffer+0.5 μl of 10 mM Amplex Red+1 μl of 500 U/ml Horseradish Peroxidase) are added and the plate mixed and immediately placed on the FlexStaion for fluorescence measurements. Fluorescence is read in kinetic mode every 2 min for 1 hour at excitation=544 and emission=590. The amine oxidase activity is calculated from the slope of the linear portion of the curve

IC50 [nM]	Compound
< 300	CCN1CCN(Cc2ccc(CNC(=O)c3cccc(Oc4cc(CN)ccn4)c3)cc2)CC1
< 300	NCc1ccnc(C(=O)NCc2ccccc2)c1
